Laboratory results taken from patent US20240002379A1, “ASYMMETRIC CONJUGATE COMPOUNDS” (Pheon Therapeutics Ltd., priority 2016, published 2024).

What was measured:
[1] = test system: SW48 cell line (gastric); experiment: MTT cytotoxicity assay, SW48; assay type: cell-based; settings: Homo sapiens, SW48; MTT assay, 72 hour incubation; read-out: Cytotoxicity SW48 (72 hrs)
Summary of the method: (§1)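 Cells seeded at 1800/well in RPMI1640 + 10% FBS, adhered overnight, then exposed to compound 72 h at 37° C. Survival by MTT (500 μg/ml, 4 h), formazan in DMSO read at 540 nm, blank-corrected versus untreated wells; IC50 read from concentration–survival plot.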

[2] = test system: SW620 cell line (gastric); experiment: MTT cytotoxicity assay, SW620; assay type: cell-based; settings: Homo sapiens, SW-620; MTT assay, 72 hour incubation; read-out: Cytotoxicity SW620 (72 hours)
Summary of the method: as §1

[3] = test system: LIM1215 cell line (gastric); experiment: MTT cytotoxicity assay, LIM1215; assay type: cell-based; settings: LIM1215; MTT assay, 72 hour incubation; read-out: Cytotoxicity LIM1215 (72 hours)
Summary of the method: as §1

[4] = test system: fluorescently labelled DNA duplex 5′-[…]-3′; experiment: FRET DNA melting, FIG. 13 top duplex (interstrand); assay type: binding
From the text: (§2) FRET DNA melting studies were undertaken on 13 using two fluorescently labelled sequences. The sequences (FIG. 13) were designed to provide additional evidence that 13 can form inter- and intrastrand cross-links. Inosines were inserted in place of traditional DNA bases to limit the number of binding sites available for 13 to interact with.
(§3) Oligonucleotides were obtained from ATDbio (Southampton, UK) in lyophilised form. They were labelled with a fluorophore molecule (F=fluorescein) at the 5′-end and a quencher molecule (Q=dabcyl) at the 3′-end of the complementary strand. Each oligonucleotide was dissolved in distilled H2O to form stock solutions of 100 PM. Working solutions of 5 μM were prepared by diluting the stock solution with distilled H2O. […]
(§4) The reaction mixture was comprised of 4 μL of 250 mM phosphate buffer (final concentration of 50 mM), 4 μL flourophor and 4 μL quencher molecule of the appropriate oligonucleotide for a final concentration of 0.2 PM, 4 μL 5 M sodium chloride (final concentration of 1 M NaCl), and 4 μL of distilled H2O. […] This mixture was analysed without prior annealing.
(§5) Fluorescence melting profiles were measured using a Roche LightCycler using a total reaction volume of 20 μL. […] Annealing steps and melting steps were all recorded and changes in fluorescence were measured at 520 nm. […]

[5] = test system: fluorescently labelled DNA duplex 5′-[…]-3′; experiment: FRET DNA melting, FIG. 13 bottom duplex (intrastrand); assay type: binding
From the text: as §2, §3, §4, §5

[6] = test system: fluorescently labelled DNA duplex 5′-[…]-3′; experiment: FRET DNA melting, FIG. 17 bottom sequence; assay type: binding; settings: at higher concentrations; intra-strand cross-links
From the text: (§6) Further FRET DNA melting studies were undertaken on a number of molecules using three fluorescently labelled sequences. The sequences (FIG. 17) were designed to provide additional evidence that the series can form inter- and intrastrand cross-links. Inosines were inserted in place of traditional DNA bases in some cases to limit the number of binding sites available for the compounds to interact with. The short duplexes used in this FRET study are relatively unstable in the duplex form with a melting temperature below 30° C. so that, in the absence of ligand, a large part of the melting occurs below the starting temperature of the experiment. […] Increasing concentrations of 13 cause a greater amount of the melting transition to appear at the higher temperature (i.e. a greater number of the DNA molecules are cross-linked). […]
as §4, §5

[7] = test system: fluorescently labelled DNA duplex 5′-[…]-3′; experiment: FRET DNA melting, FIG. 17 top sequence; assay type: binding; settings: suggests interstrand cross-link formation
From the text: as §6, §4, §5

| SMILES | IC50 [1] [nM] | IC50 [2] [nM] | IC50 [3] [nM] | change of melting temperature with compound concentration ([4]; FIG. 14 top panel) | Tm value ([4]; duplex alone melts below 30° C., suggests interstrand cross-link) [°C] | change of melting temperature with compound concentration ([5]; FIG. 14 bottom panel) | Tm value ([5]; duplex alone melts below 30° C., suggests intra-strand cross-link) [°C] | Tm [6] [°C] | Tm value [7] [°C] |
| --- | --- | --- | --- | --- | --- | --- | --- | --- | --- |
| COc1cc2c(cc1OCCCC(=O)N1C[C@@H](CCl)c3c1cc(O)c1ccccc31)N=C[C@@H]1CCCCN1C2=O [Compound 13, (S)-3-(4-((S)-1-(Chloromethyl)-5-hydroxy-1,2-dihydro-3H-benzo[e]indol-3-yl)-4-oxobutoxy)-2-methoxy-7,8,9,10-tetrahydrobenzo[e]-pyrido[1,2-a][1,4]diazepin-12(6aH)-one] | 0.28 | 0.42 | 0.68 | increases significantly | ~65 | increases significantly | 60 | – | – |
| COc1cc2c(cc1OCc1cccc(CC(=O)N3C[C@@H](CCl)c4c3cc(O)c3ccccc43)c1)N=C[C@@H]1CCCCN1C2=O [Compound 42, (S)-3-((3-(2-((S)-1-(Chloromethyl)-5-hydroxy-1,2-dihydro-3H-benzo[e]indol-3-yl)-2-oxoethyl)benzyl)oxy)-2-methoxy-7,8,9,10-tetrahydrobenzo[e]pyrido[1,2-a][1,4]diazepin-12(6aH)-one] | – | – | – | – | – | – | – | ~80 | ~80 |
